Experimental data as given in the supplement of paper PMC10307832.

What was measured:
Assay in all cases: relative viability (nuclei count vs DMSO), 5 days (fraction); higher = more cells survive
HCC-78 = system: HCC-78
In short: (§1)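 One day after seeding in 1536-well plates, lung cancer cell lines were dosed by pin tool. Dosing was either single-drug or a fixed anchor-drug dose plus five library-drug doses (not always all listed) in √10 steps. After 5 days, nuclei were stained in one fix-and-stain step and counted on 4× images, and relative viability is the nuclei count of treated wells over that of vehicle wells, given as the median of duplicate plates.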

EBC-1 = system: EBC-1
In short: as §1

NCI-H1975 = system: NCI-H1975
In short: as §1

NCI-H1703 = system: NCI-H1703
In short: as §1

NCI-H1650 = system: NCI-H1650
In short: as §1

A549 = system: A549
In short: as §1

NCI-H1734 = system: NCI-H1734
In short: as §1

IA-LM = system: IA-LM
In short: as §1

LXF-289 = system: LXF-289
In short: as §1

201T = system: 201T
In short: as §1

Calu-6 = system: Calu-6
In short: as §1

NCI-H1299 = system: NCI-H1299
In short: as §1

HARA = system: HARA
In short: as §1

COCC1(CO)C(=O)C2CCN1CC2 (configuration not stated) [PRIMA-1MET] + C[C@@H](Oc1cc(-c2cnn(C3CCNCC3)c2)cnc1N)c1c(Cl)ccc(F)c1Cl [Crizotinib] (partner 1 µM)
relative viability (HCC-78; first compound 0.2 µM): 0.427 | relative viability (HCC-78; first compound 0.6325 µM): 0.34 | relative viability (HCC-78; first compound 6.325 µM): 0.353 | relative viability (HCC-78; first compound 20 µM): 0.0613 | relative viability (EBC-1; first compound 0.2 µM): 0.19 | relative viability (EBC-1; first compound 0.6325 µM): 0.174 | relative viability (EBC-1; first compound 2 µM): 0.197 | relative viability (EBC-1; first compound 6.325 µM): 0.192 | relative viability (EBC-1; first compound 20 µM): 0.212 | relative viability (NCI-H1975; first compound 0.2 µM): 1.12 | relative viability (NCI-H1975; first compound 0.6325 µM): 0.962 | relative viability (NCI-H1975; first compound 2 µM): 0.938 | relative viability (NCI-H1975; first compound 6.325 µM): 0.939 | relative viability (NCI-H1975; first compound 20 µM): 0.828 | relative viability (NCI-H1703; first compound 0.2 µM): 0.749 | relative viability (NCI-H1703; first compound 0.6325 µM): 0.861 | relative viability (NCI-H1703; first compound 2 µM): 0.784 | relative viability (NCI-H1703; first compound 6.325 µM): 0.377 | relative viability (NCI-H1703; first compound 20 µM): 0.0587 | relative viability (NCI-H1650; first compound 0.2 µM): 1.22 | relative viability (NCI-H1650; first compound 0.6325 µM): 1.02 | relative viability (NCI-H1650; first compound 2 µM): 1 | relative viability (NCI-H1650; first compound 6.325 µM): 0.992 | relative viability (NCI-H1650; first compound 20 µM): 0.659 | relative viability (A549; first compound 0.2 µM): 0.961 | relative viability (A549; first compound 0.6325 µM): 0.577 | relative viability (A549; first compound 2 µM): 0.813 | relative viability (A549; first compound 6.325 µM): 0.817 | relative viability (A549; first compound 20 µM): 0.746 | relative viability (NCI-H1734; first compound 0.2 µM): 0.696 | relative viability (NCI-H1734; first compound 0.6325 µM): 0.573 | relative viability (NCI-H1734; first compound 2 µM): 0.614 | relative viability (NCI-H1734; first compound 6.325 µM): 0.677 | relative viability (NCI-H1734; first compound 20 µM): 0.171 | relative viability (IA-LM; first compound 0.2 µM): 0.856 | relative viability (IA-LM; first compound 0.6325 µM): 0.868 | relative viability (IA-LM; first compound 2 µM): 0.955 | relative viability (IA-LM; first compound 6.325 µM): 0.851 | relative viability (IA-LM; first compound 20 µM): 0.838 | relative viability (LXF-289; first compound 0.2 µM): 0.81 | relative viability (LXF-289; first compound 0.6325 µM): 0.869 | relative viability (LXF-289; first compound 2 µM): 0.871 | relative viability (LXF-289; first compound 6.325 µM): 0.815 | relative viability (LXF-289; first compound 20 µM): 0.767 | relative viability (201T; first compound 0.2 µM): 1.11 | relative viability (201T; first compound 0.6325 µM): 1 | relative viability (201T; first compound 2 µM): 0.901 | relative viability (201T; first compound 6.325 µM): 1.06 | relative viability (201T; first compound 20 µM): 1.04 | relative viability (Calu-6; first compound 0.2 µM): 0.795 | relative viability (Calu-6; first compound 0.6325 µM): 0.901 | relative viability (Calu-6; first compound 2 µM): 0.825 | relative viability (Calu-6; first compound 6.325 µM): 0.886 | relative viability (Calu-6; first compound 20 µM): 0.627 | relative viability (NCI-H1299; first compound 0.2 µM): 0.988 | relative viability (NCI-H1299; first compound 0.6325 µM): 0.728 | relative viability (NCI-H1299; first compound 2 µM): 1 | relative viability (NCI-H1299; first compound 6.325 µM): 0.978 | relative viability (NCI-H1299; first compound 20 µM): 0.955 | relative viability (HARA; first compound 0.2 µM): 1.17 | relative viability (HARA; first compound 0.6325 µM): 1.04 | relative viability (HARA; first compound 6.325 µM): 0.987 | relative viability (HARA; first compound 20 µM): 0.99

COCC1(CO)C(=O)C2CCN1CC2 (configuration not stated) [PRIMA-1MET] + CC(C)C[C@H](NC(=O)[C@H](Cc1ccccc1)NC(=O)c1cnccn1)B(O)O [Bortezomib] (partner 0.002 µM)
relative viability (HCC-78; first compound 0.2 µM): 0.694 | relative viability (HCC-78; first compound 0.6325 µM): 0.521 | relative viability (HCC-78; first compound 2 µM): 0.452 | relative viability (HCC-78; first compound 6.325 µM): 0.485 | relative viability (HCC-78; first compound 20 µM): 0.0823 | relative viability (EBC-1; first compound 0.2 µM): 0.581 | relative viability (EBC-1; first compound 0.6325 µM): 0.549 | relative viability (EBC-1; first compound 2 µM): 0.572 | relative viability (EBC-1; first compound 6.325 µM): 0.544 | relative viability (EBC-1; first compound 20 µM): 0.136 | relative viability (NCI-H1975; first compound 0.2 µM): 0.457 | relative viability (NCI-H1975; first compound 0.6325 µM): 0.408 | relative viability (NCI-H1975; first compound 2 µM): 0.399 | relative viability (NCI-H1975; first compound 6.325 µM): 0.4 | relative viability (NCI-H1975; first compound 20 µM): 0.419 | relative viability (NCI-H1703; first compound 0.2 µM): 0.568 | relative viability (NCI-H1703; first compound 0.6325 µM): 0.369 | relative viability (NCI-H1703; first compound 2 µM): 0.311 | relative viability (NCI-H1703; first compound 6.325 µM): 0.142 | relative viability (NCI-H1703; first compound 20 µM): 0.049 | relative viability (NCI-H1650; first compound 0.2 µM): 0.207 | relative viability (NCI-H1650; first compound 0.6325 µM): 0.222 | relative viability (NCI-H1650; first compound 2 µM): 0.205 | relative viability (NCI-H1650; first compound 6.325 µM): 0.188 | relative viability (NCI-H1650; first compound 20 µM): 0.197 | relative viability (NCI-H1734; first compound 0.2 µM): 1.16 | relative viability (NCI-H1734; first compound 0.6325 µM): 0.75 | relative viability (NCI-H1734; first compound 2 µM): 0.812 | relative viability (NCI-H1734; first compound 6.325 µM): 0.967 | relative viability (NCI-H1734; first compound 20 µM): 0.224 | relative viability (IA-LM; first compound 0.2 µM): 1.02 | relative viability (IA-LM; first compound 0.6325 µM): 0.648 | relative viability (IA-LM; first compound 2 µM): 0.831 | relative viability (IA-LM; first compound 6.325 µM): 0.989 | relative viability (IA-LM; first compound 20 µM): 0.903 | relative viability (LXF-289; first compound 0.2 µM): 0.999 | relative viability (LXF-289; first compound 0.6325 µM): 0.976 | relative viability (LXF-289; first compound 2 µM): 1.12 | relative viability (LXF-289; first compound 6.325 µM): 1 | relative viability (LXF-289; first compound 20 µM): 0.872 | relative viability (201T; first compound 0.2 µM): 1.18 | relative viability (201T; first compound 0.6325 µM): 1.07 | relative viability (201T; first compound 2 µM): 1.07 | relative viability (201T; first compound 6.325 µM): 1.15 | relative viability (201T; first compound 20 µM): 1.08 | relative viability (Calu-6; first compound 0.2 µM): 1.11 | relative viability (Calu-6; first compound 0.6325 µM): 0.95 | relative viability (Calu-6; first compound 2 µM): 1.07 | relative viability (Calu-6; first compound 6.325 µM): 1.02 | relative viability (Calu-6; first compound 20 µM): 0.463 | relative viability (NCI-H1299; first compound 0.2 µM): 1.06 | relative viability (NCI-H1299; first compound 0.6325 µM): 1.02 | relative viability (NCI-H1299; first compound 2 µM): 0.96 | relative viability (NCI-H1299; first compound 6.325 µM): 1.09 | relative viability (NCI-H1299; first compound 20 µM): 0.996 | relative viability (HARA; first compound 0.2 µM): 1.24 | relative viability (HARA; first compound 0.6325 µM): 0.704 | relative viability (HARA; first compound 6.325 µM): 1.07 | relative viability (HARA; first compound 20 µM): 1.14
